Where a chain is given by its changes, count along the chain named.
Columns and labels:
FAM86A [1] = target: T1, FAM86A (Homo sapiens, UniProt Q96G04, I256Y/M257Y/E296Y); assay: X-ray crystal structure, […] A; details: co-crystallised with 1 mM SAH, ammonium citrate pH 7.0, PEG 3350, 5 mM TCEP, 12 C; SAM-binding site of MTase domain
T1 construct: gene EEF2KMT; full-length, surface-entropy-reduction triple mutant; N-terminal His6-MBP tag removed by TEV; E. coli BL21(DE3) RIL; residues 1-5 and 127-133 not traced
T1 sequence (Q96G04 1-330 I256Y/M257Y/E296Y): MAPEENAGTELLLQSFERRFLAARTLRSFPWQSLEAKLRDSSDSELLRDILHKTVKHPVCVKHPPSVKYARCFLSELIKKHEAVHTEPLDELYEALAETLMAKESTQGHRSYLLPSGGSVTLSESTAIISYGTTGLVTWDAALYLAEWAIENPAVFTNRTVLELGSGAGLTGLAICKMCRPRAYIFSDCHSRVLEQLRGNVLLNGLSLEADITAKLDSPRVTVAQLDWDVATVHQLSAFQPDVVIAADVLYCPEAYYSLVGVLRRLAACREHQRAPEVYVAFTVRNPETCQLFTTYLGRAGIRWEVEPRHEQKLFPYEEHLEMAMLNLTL

FAM86A [2] = target: T2, FAM86A (Homo sapiens, UniProt Q96G04); assay: in vitro methylation, autoradiography; type: biochemical; details: labelled compound; methyl donor; co-substrate recombinant human EEF2 (Lys525); Tris-HCl pH 8.0, 20 mM KCl, 5 mM MgCl2, 10% glycerol, 30 C overnight
T2 construct: gene EEF2KMT; full-length; E. coli BL21
T2 sequence (Q96G04 1-330): T1 sequence (Q96G04 1-330 I256Y/M257Y/E296Y) with Y256I, Y257M, Y296E
Procedure: in vitro methylation, autoradiography on FA[…] | incubating recombinant, purified FA[…] with recombinant, purified EEF2 in the presence of radiolabeled SAM

FAM86A [3] = target: T3, FAM86A (Homo sapiens, UniProt Q96G04, A97R); assay: in vitro methylation, autoradiography; type: biochemical; details: labelled compound; methyl donor; co-substrate recombinant human EEF2 (Lys525); Tris-HCl pH 8.0, 20 mM KCl, 5 mM MgCl2, 10% glycerol, 30 C overnight
T3 construct: gene EEF2KMT; full-length; E. coli BL21
T3 sequence (Q96G04 1-330 A97R): T1 sequence (Q96G04 1-330 I256Y/M257Y/E296Y) with A97R, Y256I, Y257M, Y296E

Structure (SMILES) | X-ray crystal structure, 3.3 A (FAM86A [1]) | in vitro methylation, autoradiography (FAM86A [2]) | in vitro methylation, autoradiography (FAM86A [3])
Nc1ncnc2c1ncn2[C@@H]1O[C@H](CSCC[C@H](N)C(=O)O)[C@@H](O)[C@H]1O [SAH, S-adenosyl homocysteine] | structure determination of full-length FAM86A in complex with cofactor–by-product S-adenosyl homocysteine (SAH) | – | –
C[S+](CC[C@H](N)C(=O)O)C[C@H]1O[C@@H](n2cnc3c(N)ncnc32)[C@H](O)[C@@H]1O (stereo partly drawn) [SAM, S-adenosyl methionine] | – | incubating recombinant, purified FAM86A with recombinant, purified EEF2 in the presence of radiolabeled SAM | the activity of purified FAM86A (A97R) on purified EEF2 was similar to that of wildtype
